Laboratory results from patent publication US20130324439A1, “Elastic Modulus-modified MicroEnvironment microArrays (eMEArrays) and Uses Thereof” (The Regents of the University of California, priority 2012, published 2013).
Entries after “also recorded” stand apart in the source; their conditions may differ.

How the values were obtained:
[1] = test system: HER2+ breast cancer cell line HCC1569; assay: EdU incorporation (DNA synthesis) of HCC1569 on 2D tissue culture plastic, PA gels of tuned elastic modulus or 3D Matrigel; conditions: for Effect of actinomyosin network inhibitor on the modulus-dependent lapatinib response: HCC1569 on PA gels, 1 hr w/inhibitors; for Response to lapatinib (EdU incorporation), 3D Matrigel culture versus 2D tissue culture plastic: 4 days growth then 2 days with 1.5 μM Lapatinib; for Effect of inhibitor added with lapatinib on the 3D context-dependent response (EdU incorporation): 3D Matrigel versus 2D TC plastic; for Effect of inhibitor alone on EdU incorporation: TC plastic or 3D Matrigel, without lapatinib
Experimental: (§1) The cells were grown on plastic tissue culture dishes (2D) vs. PA gels, and 3D on top, RPMI1640 with 1% FBS and 5% Matrigel 4 days growth then 2 days with 1.5 μM Lapatinib.
(§2) We sought to determine if HER-2 drug response was different between 2D and 3D culture environment and whether that difference is due to different substrata stiffness. Cells were grown on plastic tissue culture dishes (2D), functionalized polyacrylamide cell culture (PA) gels, and in 3D (Matrigel on top, RPMI1640 with 1% FBS and 5% Matrigel 4 days growth then 2 days with 1.5 μM Lapatinib).
We next sought to determine if the actinomyosin network plays a role in this different drug response. Cells were grown in 2D, on PA gels, and in 3D Matrigel with 2 days growth, 1 hr w/inhibitors, then 2 days with 1.5 μM lapatinib.
To determine whether the 3D Matrigel context response was due only to the physiological modulus, we combined the actinomyosin network inhibitors together with lapatinib and compared the responses of cells in 3D to cells cultured on 2D TC plastic.
We next sought to determine if the concentration of type I collagen affected HER-2 targeted drug response. Referring now to FIG. 14, cells were subjected to non-coated tissue culture dishes, Collagen I coated tissue coated dishes for 2 days growth, then 2 days with 1.5 μM lapatinib.

[2] = test system: HER2; assay: Phospho-specific intracellular flow cytometry, ratio of pHER2 to total HER2 in HCC1569; format: cell-based; conditions: for Modulus-dependent regulation of pHER2/HER2 ratio in treated cells: HCC1569, inhibitor for 24 hours on PA gels of differing compliance
From the text: FIG. 13 is a graph showing by using intracellular flow cytometry to analyze the pHER2 and HER2 expression level of HCC1569, that cells on softer gel have higher pHER2/HER2 ratio and less EdU incorporation, vice versa, and then compared to the drug response. Thus stiffness can alter HER2 regulation and drug response. pHER2/HER2 ratios are altered in a modulus-dependent manner. (blue line) pHER2/HER2 ratios as determined with phosphor specific flow cytometry on HCC1569 cells cultured 4 days on different compliance substrata. (red line) Responses to lapatinib determined by EdU incorporation in HCC1569 as a function of substrate compliance
To better understand why changing the elastic modulus of the culture substrata altered sensitivity to lapatinib on PA gels we used phospho-specific intracellular flow cytometry techniques to measure the ratio of phosphorylated HER2 (pHER2, which is considered activated) to total HER2. Cells were first fixed and stained with an antibody that recognized total HER2 on the cell surface, then the cells were permeabilized and stained for pHER2 prior to multicolor analysis on a flow cytometer.
To determine whether the actinomyosin network is involved in regulating the modulus-dependent regulation of HER2, HCC 1569 were exposed to Blebbistatin or Y27632 for 24 hours on PA gels of differing compliance. […] Thus the actinomyosin network is likely important in modulus-dependent regulation of HER2.

[3] = test system: HCC1569 cells; assay: eMEArray drug response, EdU-pixels/nucleus-pixels of HCC1569 on printed microenvironments on PA gels
[4] = test system: HER2- BT549 cells; assay: EdU incorporation of BT549 on 2D plastic, PA gels or 3D Matrigel; format: cell-based; conditions: PA gel and 3D, 1.5 μM Lapatinib
Experimental: as §1, §2

[5] = test system: HER2-expressing breast cancer cell lines; conditions: cited from earlier work
[6] = then 2 days with 1.5 μM lapatinib

## Cc1ccc2c(c1)C(=O)C1(O)CCN(c3ccccc3)C1=N2 (stereo not shown) [Blebbistatin]
[1]; [6]
  Effect of actinomyosin network inhibitor on the modulus-dependent lapatinib response: altered
[2]
  Modulus-dependent regulation of pHER2/HER2 ratio in treated cells: absent

## CS(=O)(=O)CCNCc1ccc(-c2ccc3ncnc(Nc4ccc(OCc5cccc(F)c5)c(Cl)c4)c3c2)o1 [Lapatinib]
[1]; HCC1569, 400 Pa PA gel crosslinked to type 1 collagen, 1.5 uM lapatinib
  Response to lapatinib (EdU incorporation) on PA gels tuned to 400 Pa, compared with 3D Matrigel: very similar results compared to 3D cultures; also recorded: phenocopied the response of HCC1569 grown in 3D Matrigel
[1]; HCC1569
  Response to lapatinib (EdU incorporation), 3D Matrigel culture versus 2D tissue culture plastic: inhibited more
[1]; HCC1569, listed as lapatinib
  Response to lapatinib (EdU incorporation), 3D Matrigel culture versus 2D tissue culture plastic: more sensitive
[1]; non-coated vs Collagen-I coated TC dishes or PA gels, 2 days growth, then 2 days with 1.5 μM lapatinib
  Influence of type I collagen concentration on lapatinib response (% EdU incorporation): does impact lapatinib response on TC dishes, but less so on low modulus gels
[3]; 40 kPa
  Response of cells on eMEArrays with elastic modulus similar to 40 kPa: sensitive response
[3]; 400 kPa
  Response of cells on 400 kPa eMEArrays: resistant response
[3]; HCC1569, 1.5 μM Lapatinib for 24 hours, EdU for the final 4 hours
  Responses to lapatinib on other molecular microenvironments relative to type 1 collagen alone: widely varied responses
[4]
  Response to lapatinib (EdU incorporation): unaffected
[4]; listed as lapatinib
  Response to lapatinib (EdU incorporation): did not respond; also recorded: insensitive
[5]
  Responsiveness in 3D Matrigel culture compared to 2D growth: less responsive
[2]; HCC1569 on 400 Pa, 2500 Pa, 4470 Pa, 40 KPa gels or TC plastic, 1.5 uM lapatinib for 4 days
  Ratio of pHER2 to total HER2 as a function of substrate compliance: higher ratio of pHER2 to total HER2 on more compliant substrata

## O=S(=O)(c1cccc2c(I)cccc12)N1CCCNCC1 [ML-7]
[1]; HCC1569
  Effect of inhibitor added with lapatinib on the 3D context-dependent response (EdU incorporation): eliminated any context-driven differences
  Effect of inhibitor alone on EdU incorporation: did not have any effect
[1]; [6]
  Effect of actinomyosin network inhibitor on the modulus-dependent lapatinib response: altered
[1]; combination of ML-7 with Lapatinib, 2D PA gels
  Effect of combination with Lapatinib on cells on 2D PA gels: synergistic response that caused massive cell death
[1]; lapatinib and ML-7, 3D Matrigel
  Effect of lapatinib and ML-7 together on cells in 3D: no such synergistic effect

## C[C@@H](N)[C@H]1CC[C@H](C(=O)Nc2ccncc2)CC1 [Y27632]
[1]; HCC1569
  Effect of inhibitor added with lapatinib on the 3D context-dependent response (EdU incorporation): did not alter
  Effect of inhibitor alone on EdU incorporation: did not have any effect
[1]; [6]
  Effect of actinomyosin network inhibitor on the modulus-dependent lapatinib response: altered
[2]
  Modulus-dependent regulation of pHER2/HER2 ratio in treated cells: absent
